The text below walks through data of patent US10717746B2, “Chemical compounds” (ASTRAZENECA AB, priority 2015, dated 2020).

Each structure is given as a SMILES string. Some results are limits rather than exact numbers.

Experiment [1] relates to phosphorylation of RNA Polymerase II (RNAPII) at the Ser2 site in MCF7 cells. Briefly: MCF7 pSer2 RNAPII MOA assay (immunofluorescence). Format: cell-based. Conditions: Homo sapiens, MCF7, 6 h, 6-hr treatment, read-out: p-Ser 2 RNAPII (IC50). The protocol: MCF7 pSer2 RNAPII MOA Assay
This is an immunofluorescence assay to determine the effect of CDK9 inhibitors on phosphorylation of RNA Polymerase II (RNAPII) at the Ser2 site in the breast cancer cell line, MCF7. On day one, 2500 MCF7 cells/well were seeded in 30 μl of growth media (RPMI+10% FBS+1% L-Glu+P/S) in 384-well black-wall clear-bottom plates, incubate plates overnight at 37° C. incubator. On the second day, the cells were treated with CDK9 inhibitors (7 point dose response ranging from 3 μM to 0.004 μM) using an ECHO liquid handler (Labcyte). After 6-hr treatment at 37° C. incubator, the cells were fixed with 30 µl/well 7.4% paraformaldehyde for 15 min at room temperature; the cells were washed twice with PBS, then permeabilized with 0.3% Triton X/PBS for 5 min at room temperature. After washing cells with PBS, the cells were incubated with 1:2000 diluted Anti-Ser2 Phospho-RNA pol II antibody (Covance MMS-129R) in 3% FBS/0.1% PBST overnight at 4° C. On the next day, the cells were washed twice with 0.1% PBST, then incubated with 1:1000 diluted Alexa Fluor 488 Goat-anti-mouse antibody (Life Technologies A-11001) and 1:4000 diluted DAPI at room temperature in dark. After one hour incubation, the cells were washed twice with 0.1% PBST, and once with PBS. The plates where sealed and read on an Acumen eX3 microplate cytometer (TTP Labtech) to assess phosphorylation level in each well.

The test system of the next experiment is MV411 cells. Briefly: MV411 caspase activity assay (Caspase-Glo 3/7). In kind it is cell-based. Conditions: Homo sapiens, MV4-11, 6 h, 6-hr treatment, caspase 3/7 induction. The protocol:
MV411 Caspase Activity Assay
This is a cell assay to measure the induction of caspase activity in the acute myeloid leukemia cell line, MV411 after 6-hr treatment with CDK9 inhibitors. On the first day, 3000 MV411 cells/well were seeded in 50 μl of growth media (IMDM+10% FBS+2% L-Glu+P/S) in 384-well white plates, incubate plates in 37° C. incubator overnight. […] After 6 hour incubation in 37° C. incubator, 25 μl of Caspase-Glo 3/7 reagent (Promega) per well was added into each well, and plates were incubated at room temperature for 30 min in dark. The plates were read on an Infinite M200 microplate reader (Tecan) with a 100 ms integration time.

In experiment [2] the target is T1, CDK9/CycT1 (Homo sapiens (Human), UniProt P50750). Briefly: CDK9 kinase assay, ATP concentration at Km (mobility shift, Caliper LC3000). Format: biochemical. Conditions: 6 μM ATP, 3 nM CDK9/CycT1; read-out: CDK9 ATP conc. at Km (IC50). The protocol:
(§1) Activity of CDK9 was determined in-vitro using a mobility shift assay on a Caliper LC3000 reader (Caliper/PerkinElmer), which measures fluorescence of a phosphorylated and unphosphorylated fluorescent peptide substrate and calculates a ratiometric value to determine percent turnover. Phosphorylation of the peptide in the presence and absence of the compound of interest was determined. Enzyme/substrate/adenosine triphosphate (ATP) mix (3 nM CDK9/CycT1, 6 μM ATP, 1.5 μM CDK9 peptide substrate (FITC-X-GSRTPMY-NH2 (X: epsilon aminocaproic acid)), 50 mM HEPES (pH7.2), 1 mM dithiothreitol, 0.01% tween 20, 50 μg/mL bovine serum albumin, (final assay concentration)) (5 μl) was preincubated with 2 μl of compound for 15 minutes at 25° C. Reactions were initiated with 5 μl of 24 mM MgCl2 (10 mM final assay concentration) in buffer (50 mM HEPES (pH7.2), 1 mM dithiothreitol, 0.01% tween 20, 50 μg/mL bovine serum albumin, (final assay concentration) and incubated at 25° C. for 90 minutes and reactions were stopped by addition of 5 μl of Stop mix consisting of 65 mM HEPES (pH7.2), 35.5 mM EDTA, 0.227% Coatin Reagent 3 (Caliper/PerkinElmer), and 0.003% Tween. Phosphorylated and unphosphorylated substrate was detected by a Caliper LC3000 reader (Caliper/PerkinElmer) in the presence of separation buffer consisting of 100 mM HEPES (pH7.2), 15.8 mM EDTA, 0.1% Coatin Reagent 3 (Caliper/PerkinElmer), 0.015% Brij-35, 5% DMSO, and 5.6 mM MgCl2. CDK9 enzyme was acquired from Carna Biosciences (Catalogue number 04-110), the CDK9 peptide substrate was acquired from Intonation (Boston, Mass.; Custom-made).

Experiment [3] deals with T1, CDK9/CycT1. Briefly: CDK9 kinase assay, high ATP concentration (5 mM ATP). In kind it is biochemical. To be noted: 1.5 nM CDK9, read-out: CDK9 High ATP conc. (IC50). The protocol:
as §1
High ATP assays were run the same way with the following modifications: the final assay concentration of CDK9 was 1.5 nM and the final assay concentration of ATP was 5 mM.

T1 sequence (P50750 whole entry): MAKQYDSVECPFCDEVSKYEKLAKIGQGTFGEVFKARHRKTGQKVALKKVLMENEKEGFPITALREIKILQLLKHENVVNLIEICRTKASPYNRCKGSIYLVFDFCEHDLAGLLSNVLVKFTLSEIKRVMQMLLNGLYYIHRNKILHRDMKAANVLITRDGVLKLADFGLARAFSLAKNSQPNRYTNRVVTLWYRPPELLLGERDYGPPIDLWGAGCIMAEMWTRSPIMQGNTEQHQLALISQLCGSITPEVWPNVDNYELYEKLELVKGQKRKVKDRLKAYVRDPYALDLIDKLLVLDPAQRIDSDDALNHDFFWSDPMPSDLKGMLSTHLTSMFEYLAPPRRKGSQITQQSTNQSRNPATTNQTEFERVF
T1 sequence (O60563 whole entry partner): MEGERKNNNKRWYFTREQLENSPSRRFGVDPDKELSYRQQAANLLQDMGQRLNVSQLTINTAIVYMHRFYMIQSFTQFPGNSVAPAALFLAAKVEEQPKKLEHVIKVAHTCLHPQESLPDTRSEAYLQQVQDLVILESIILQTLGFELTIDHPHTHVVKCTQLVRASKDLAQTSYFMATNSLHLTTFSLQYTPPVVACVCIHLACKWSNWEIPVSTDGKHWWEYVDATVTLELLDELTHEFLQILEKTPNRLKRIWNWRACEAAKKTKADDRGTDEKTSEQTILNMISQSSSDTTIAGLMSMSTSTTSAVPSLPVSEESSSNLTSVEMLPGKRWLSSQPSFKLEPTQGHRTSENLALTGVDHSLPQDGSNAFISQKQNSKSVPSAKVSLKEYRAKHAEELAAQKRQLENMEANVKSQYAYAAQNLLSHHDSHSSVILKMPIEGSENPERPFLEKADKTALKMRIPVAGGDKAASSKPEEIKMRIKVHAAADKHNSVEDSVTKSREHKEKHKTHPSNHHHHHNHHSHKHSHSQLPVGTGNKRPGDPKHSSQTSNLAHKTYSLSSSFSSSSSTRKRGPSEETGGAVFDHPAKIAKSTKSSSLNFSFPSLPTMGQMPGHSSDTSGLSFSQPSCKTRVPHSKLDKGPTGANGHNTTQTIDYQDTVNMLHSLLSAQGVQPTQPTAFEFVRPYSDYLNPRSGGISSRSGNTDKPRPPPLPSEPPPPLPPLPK

As usually defined, the IC50 is the point on the concentration scale where inhibition reaches its midpoint. `CC(=O)N[C@H]1CCC[C@@H](C(=O)Nc2cc(-c3cnn4c3CC(C)(C)C4)c(F)cn2)C1` [Example 81, (1R,3S)-3-acetamido-N-(4-(5,5-dimethyl-5,6-dihydro-4H-pyrrolo[1,2-b]pyrazol-3-yl)-5-fluoropyridin-2-yl)cyclohexanecarboxamide]: the IC50 was 665 nM in experiment [1], 896 nM in the experiment with MV411 cells, 8 nM at CDK9/CycT1 [2] and 554 nM at CDK9/CycT1 [3].
The matching figures for `COC1CCn2ncc(-c3cc(NC(=O)[C@H]4CCC[C@@H](NC(C)=O)C4)ncc3Cl)c2C1` (single isomer, unassigned) [Example 72]: 360 nM, 400 nM, 3 nM and 111 nM.
For `CC1(C(=O)N[C@@H]2CCC[C@H](C(=O)Nc3cc(-c4cnn5c4CCCC5)c(Cl)cn3)C2)COC1` [Example 34, N-((1R,3S)-3-((5-chloro-4-(4,5,6,7-tetrahydropyrazolo[1,5-a]pyridin-3-yl)pyridin-2-yl)carbamoyl)cyclohexyl)-3-methyloxetane-3-carboxamide] the same measures were 107 nM, 188 nM, less than 3 nM and 29 nM.
Consider `O=C(Nc1cc(-c2cnn3c2CCCC3)c(Cl)cn1)[C@H]1C[C@@H](O)C1` [Example 4, Cis-N-(5-chloro-4-(4,5,6,7-tetrahydropyrazolo[1,5-a]pyridin-3-yl)pyridin-2-yl)-3-hydroxycyclobutanecarboxamide], for which the concentration for half-maximal inhibition (IC50) in experiment [1] was 220 nM; in the experiment with MV411 cells, 280 nM; at CDK9/CycT1 [2], 3 nM; at CDK9/CycT1 [3] it was 170 nM.
Take `CC1(C)Cc2c(-c3ccnc(NC(=O)[C@H]4C[C@@H](O)C4)c3)cnn2C1` [Example 26, cis-N-(4-(5,5-dimethyl-5,6-dihydro-4H-pyrrolo[1,2-b]pyrazol-3-yl)pyridin-2-yl)-3-hydroxycyclobutanecarboxamide]: the 50% inhibitory concentration (IC50) was 122 nM in experiment [1], 152 nM in the experiment on MV411 cells, less than 3 nM on CDK9/CycT1 [2] and 93 nM on CDK9/CycT1 [3].
For `CC(=O)N[C@@H]1CCC[C@H](C(=O)Nc2cc(-c3cnn4c3CCCC4O)c(Cl)cn2)C1` (stereo partly drawn) [Example 78, (1S,3R)-3-acetamido-N-(5-chloro-4-(7-hydroxy-4,5,6,7-tetrahydropyrazolo[1,5-a]pyridin-3-yl)pyridin-2-yl)cyclohexanecarboxamide] the same measures were 720 nM, 1230 nM, less than 3 nM and 60 nM.
For `CC1(C)Cc2c(-c3cc(NC(=O)[C@H]4CCC[C@@H](NC(=O)[C@H]5CCOC5)C4)ncc3Cl)cnn2C1` [Example 24, (S)—N-((1R,3S)-3-((5-chloro-4-(5,5-dimethyl-5,6-dihydro-4H-pyrrolo[1,2-b]pyrazol-3-yl)pyridin-2-yl)carbamoyl)cyclohexyl)tetrahydrofuran-3-carboxamide] the same measures were 11 nM, 15 nM, less than 3 nM and 4 nM.
On to `CC(=O)N[C@@H]1CCC[C@H](C(=O)Nc2cc(-c3cnn4c3CCCC4)ccn2)C1` [Example 3, (1S,3R)-3-acetamido-N-(4-(4,5,6,7-tetrahydropyrazolo[1,5-a]pyridin-3-yl)pyridin-2-yl)cyclohexanecarboxamide], for which the IC50 in experiment [1] was 520 nM; with MV411 cells, 440 nM; on CDK9/CycT1 [2], less than 3 nM; on CDK9/CycT1 [3], 210 nM.
The matching figures for `CC(=O)N[C@@H]1CCC[C@H](C(=O)Nc2cc(-c3cnc4n3CC(C)(C)C4)c(F)cn2)C1` [Example 50, (1S,3R)-3-acetamido-N-(4-(6,6-dimethyl-6,7-dihydro-5H-pyrrolo[1,2-a]imidazol-3-yl)-5-fluoropyridin-2-yl)cyclohexanecarboxamide]: 19 nM, 26 nM, less than 3 nM and 5 nM.
As to `CC(=O)N[C@@H]1CCC[C@H](C(=O)Nc2cc(-c3cnc4n3CCCC4)c(Cl)cn2)C1` [Example 7, (1S,3R)-3-acetamido-N-(5-chloro-4-(5,6,7,8-tetrahydroimidazo[1,2-a]pyridin-3-yl)pyridin-2-yl)cyclohexanecarboxamide], the IC50 in experiment [1] amounted to 1450 nM; in the experiment with MV411 cells it was 1180 nM; at CDK9/CycT1 [2], 8 nM; on CDK9/CycT1 [3], 690 nM.
The matching figures for `CC(=O)N[C@@H]1CCC[C@H](C(=O)Nc2cc(-c3cnn4c3CC(C)(C)C4)ncn2)C1` [Example 30, (1S,3R)-3-acetamido-N-(6-(5,5-dimethyl-5,6-dihydro-4H-pyrrolo[1,2-b]pyrazol-3-yl)pyrimidin-4-yl)cyclohexanecarboxamide]: 1240 nM, 1050 nM, 7 nM and 606 nM.
As to `O=C(Nc1cc(-c2cnn3c2CCCC3)c(Cl)cn1)[C@H]1CCC[C@@H](NC(=O)[C@H]2CCOC2)C1` [Example 38, (S)—N-((1R,3S)-3-((5-chloro-4-(4,5,6,7-tetrahydropyrazolo[1,5-a]pyridin-3-yl)pyridin-2-yl)carbamoyl)cyclohexyl)tetrahydrofuran-3-carboxamide], the half-inhibitory concentration (IC50) in experiment [1] is 123 nM; in the experiment on MV411 cells, 139 nM; on CDK9/CycT1 [2], less than 3 nM; on CDK9/CycT1 [3], 28 nM.
Turning to `O=C(Nc1cc(-c2cnc3n2CCCC3)c(Cl)cn1)[C@@H]1CCCNC1` [Example 1, (R)—N-(5-chloro-4-(5,6,7,8-tetrahydroimidazo[1,2-a]pyridin-3-yl)pyridin-2-yl)piperidine-3-carboxamide], the IC50 is 1540 nM in experiment [1], 1780 nM with MV411 cells, 49.1 nM at CDK9/CycT1 [2] and 4500 nM at CDK9/CycT1 [3].
The matching figures for `CC(=O)N[C@@H]1CCC[C@H](C(=O)Nc2cc(-c3cnn4c3CC(C)(C)CC4)ccn2)C1` [Example 44, (1S,3R)-3-acetamido-N-(4-(5,5-dimethyl-4,5,6,7-tetrahydropyrazolo[1,5-a]pyridin-3-yl)pyridin-2-yl)cyclohexanecarboxamide]: 48 nM, 39 nM, less than 3 nM and 8 nM.
The matching figures for `CC(=O)N[C@@H]1CCC[C@H](C(=O)Nc2cc(-c3cnn4c3CC(C)(C)CC4)c(F)cn2)C1` [Example 51, (1S,3R)-3-acetamido-N-(4-(5,5-dimethyl-4,5,6,7-tetrahydropyrazolo[1,5-a]pyridin-3-yl)-5-fluoropyridin-2-yl)cyclohexanecarboxamide]: 10 nM, 15 nM, less than 3 nM and less than 3 nM.
